# Test results from patent US11643438B2, “Antimicrobial peptides and methods of use” (priority 2018, dated 2023).
# “Also recorded” adds a separate entry of the source. *1 amine or outer side, *2 acyl side, *3 side chain or, on linkers, in order; H or OH if unused. Where a SMILES comes first, the peptide text is derived from it. [ ]: non-standard residue; d: D form. X2 = CC[C@H](C)C[C@H](C)C[C@H](C)C[C@H](N[*:1])C(=O)[*:2]; X1 = CC[C@@H](C)[C@@H](O[*:1])C(=O)[*:2]; NMeVal(β-OH) = CN[C@H](C(=O)O)C(C)(C)O; aIle = CC[C@@H](C)[C@H](N)C(=O)O; NMeV = CN[C@H](C(=O)O)C(C)C; Sar = CNCC(=O)O
# Tested on: C. albicans SC5314 Flu^R
# Assay: Ex vivo model of fungal keratitis (porcine cornea)
# Set-up: species or system Candida albicans
row,Compound,"antifungal activity (fungal growth/infection), in words"
1,"CC[C@H](C)C[C@H](C)C[C@H](C)C[C@@H]1NC(=O)[C@H](C(C)C)N(C)C(=O)[C@@H]([C@H](C)CC)OC(=O)[C@H](C(C)(C)O)N(C)C(=O)[C@H](CC(C)C)NC(=O)[C@H](C(C)C)N(C)C(=O)[C@H]([C@H](C)CC)NC(=O)[C@@H]2CCCN2C(=O)CN(C)C1=O [Compound 1, persephacin] (cyclo(L[NMeVal(β-OH)][X1][NMeV][X2][Sar]P[aIle][NMeV]))",inhibited the growth; also recorded: eliminated the fungus
2,"OC(Cn1cncn1)(Cn1cncn1)c1ccc(F)cc1F [Fluconazole, fluconazole]",did not inhibit the growth; also recorded: unable to inhibit the fungus
3,"C[C@@H]1C/C=C/C=C/C=C/C=C/[C@H](O[C@@H]2O[C@H](C)[C@@H](O)[C@H](N)[C@@H]2O)C[C@@H]2O[C@](O)(C[C@@H](O)C[C@H]3O[C@@H]3/C=C/C(=O)O1)C[C@H](O)[C@H]2C(=O)O [Natamycin, natamycin]",inhibited the growth; also recorded: reduced the fungal burden
